The values below come from publication PMC10087387, “Molecular docking, molecular dynamics simulations and in vitro screening reveal cefixime and ceftriaxone as GSK3β covalent inhibitors” (RSC Advances, 2023).

Experiment [1] deals with T1, GSK3β (Homo sapiens, UniProt P49841).
T1 construct: gene GSK3B
The experiment is described as follows: Z'-LYTE kinase assay, […] ATP, […] min preincubation (IC50 […] without preincubation). The class given is biochemical.

Experiment [2] deals with T1, GSK3β. The description is as above. Format: biochemical. This is another data set of the same source.

Like-named read-outs stand apart in the source and are kept apart here.

T1 sequence (P49841 whole entry): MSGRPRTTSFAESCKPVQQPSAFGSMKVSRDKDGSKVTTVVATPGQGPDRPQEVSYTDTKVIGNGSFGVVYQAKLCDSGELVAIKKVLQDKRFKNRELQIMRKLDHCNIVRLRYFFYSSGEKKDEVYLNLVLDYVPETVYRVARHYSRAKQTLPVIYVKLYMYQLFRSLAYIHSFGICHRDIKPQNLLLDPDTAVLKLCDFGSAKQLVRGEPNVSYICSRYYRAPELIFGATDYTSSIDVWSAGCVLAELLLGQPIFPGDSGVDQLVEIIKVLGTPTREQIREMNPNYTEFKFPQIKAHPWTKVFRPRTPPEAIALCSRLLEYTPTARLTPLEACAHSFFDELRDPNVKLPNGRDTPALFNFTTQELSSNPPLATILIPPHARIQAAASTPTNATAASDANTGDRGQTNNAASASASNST

On GSK3β [1], `C=CC1=C(C(=O)O)N2C(=O)[C@@H](NC(=O)/C(=N\OCC(=O)O)c3csc(N)n3)[C@H]2SC1` [A, cefixime] had an IC50 of 0.55 µM.

`CO/N=C(\C(=O)N[C@@H]1C(=O)N2C(C(=O)O)=C(CSc3nc(=O)c(=O)[nH]n3C)CS[C@H]12)c1csc(N)n1` [B, ceftriaxone]: at GSK3β [2], the IC50 was 0.78 µM.
